According to ChEMBL document CHEMBL3727361, “Nitrogen bicyclic compounds as inhibitors for Scyl1 and Grk5” (2014):
Active and inactive are the calls of the source. The rule behind the calls is not given here.

Columns and labels:
[1] = Effect on insulin release in mouse BetaTC6 cells assessed as ratio of insulin release incubated for 2 hrs in presence of low glucose media by ELISA relative to DMSO; type: cell-based; conditions: beta-tc6, 2 h
Beta-TC6 [2] = test: Increase in insulin release in mouse BetaTC6 cells assessed as relative insulin release activity at 10 uM incubated for 2 to 4 hrs by FRET based HTRF assay relative to sunitinib; type: functional
[3] = Cytotoxic activity against mouse BetaTC6 cells assessed as inhibition of cell proliferation at 2 to 10 uM incubated for 72 hrs by MTT assay; type: cell-based; conditions: beta-tc6, 72 h
C2C12 [4] = test: Cytotoxic activity against mouse C2C12 cells assessed as inhibition of cell proliferation of at 2 to 10 uM incubated for 72 hrs by MTT assay; type: cell-based; conditions: c2c12, 72 h
C2C12 [5] = test: Cytotoxic activity against mouse C2C12 cells assessed as inhibition of cell proliferation of at 2 uM incubated for 72 hrs by MTT assay; type: cell-based; conditions: c2c12, 72 h
[6] = biological target: T1, N-terminal kinase-like protein (Mus musculus) (UniProt Q9EQC5); test: Inhibition of Scyl1 in mouse BetaTC6 cells assessed as increase in insulin release at 2 to 10 uM incubated for 2 hrs in presence of high glucose media by ELISA; type: cell-based; conditions: Beta-TC6
T1 sequence (whole entry): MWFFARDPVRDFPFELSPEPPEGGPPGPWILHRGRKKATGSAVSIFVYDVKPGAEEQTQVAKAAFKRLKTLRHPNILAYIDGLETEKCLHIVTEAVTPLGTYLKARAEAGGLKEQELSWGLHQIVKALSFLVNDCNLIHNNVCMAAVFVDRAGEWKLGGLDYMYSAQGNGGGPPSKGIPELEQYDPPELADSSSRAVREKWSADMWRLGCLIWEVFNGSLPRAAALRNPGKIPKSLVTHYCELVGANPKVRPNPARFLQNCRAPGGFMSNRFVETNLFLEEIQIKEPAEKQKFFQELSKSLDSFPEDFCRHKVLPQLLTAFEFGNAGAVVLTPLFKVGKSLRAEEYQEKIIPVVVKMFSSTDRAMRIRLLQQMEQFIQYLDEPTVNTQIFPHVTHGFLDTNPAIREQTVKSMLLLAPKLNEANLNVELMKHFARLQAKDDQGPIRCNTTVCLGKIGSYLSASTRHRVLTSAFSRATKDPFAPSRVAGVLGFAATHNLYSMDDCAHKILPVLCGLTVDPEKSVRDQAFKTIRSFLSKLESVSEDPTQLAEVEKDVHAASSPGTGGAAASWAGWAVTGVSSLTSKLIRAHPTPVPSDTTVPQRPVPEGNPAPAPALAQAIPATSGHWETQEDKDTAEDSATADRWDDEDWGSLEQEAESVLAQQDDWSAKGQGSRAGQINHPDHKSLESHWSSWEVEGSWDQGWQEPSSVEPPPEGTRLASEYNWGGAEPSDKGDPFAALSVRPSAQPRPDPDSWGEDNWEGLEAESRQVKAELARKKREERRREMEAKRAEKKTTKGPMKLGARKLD

[7] = Cytotoxic activity against mouse BetaTC6 cells assessed as inhibition of cell proliferation at 10 uM incubated for 72 hrs by MTT assay; type: cell-based; conditions: beta-tc6, 72 h
Beta-TC6 [8] = test: Effect on insulin release in mouse BetaTC6 cells incubated for 2 hrs by ELISA; type: functional, cell-based
[9] = biological target: T1, N-terminal kinase-like protein (Mus musculus); test: Inhibition of Scyl1 in mouse BetaTC6 cells assessed as reduction in increase in insulin release at 5 uM incubated for 2 hrs by ELISA; type: cell-based; conditions: Beta-TC6
[10] = biological target: RAC-alpha serine/threonine-protein kinase (Mus musculus) (UniProt P31750); test: Inhibition of Akt1 in mouse BetaTC6 cells assessed as increase in insulin release at 10 uM incubated for 2 hrs by ELISA; type: cell-based; parameters: scale not given: the % may be the effect or the level left; conditions: Beta-TC6
Chain of RAC-alpha serine/threonine-protein kinase (Mus musculus) (P31750 whole entry): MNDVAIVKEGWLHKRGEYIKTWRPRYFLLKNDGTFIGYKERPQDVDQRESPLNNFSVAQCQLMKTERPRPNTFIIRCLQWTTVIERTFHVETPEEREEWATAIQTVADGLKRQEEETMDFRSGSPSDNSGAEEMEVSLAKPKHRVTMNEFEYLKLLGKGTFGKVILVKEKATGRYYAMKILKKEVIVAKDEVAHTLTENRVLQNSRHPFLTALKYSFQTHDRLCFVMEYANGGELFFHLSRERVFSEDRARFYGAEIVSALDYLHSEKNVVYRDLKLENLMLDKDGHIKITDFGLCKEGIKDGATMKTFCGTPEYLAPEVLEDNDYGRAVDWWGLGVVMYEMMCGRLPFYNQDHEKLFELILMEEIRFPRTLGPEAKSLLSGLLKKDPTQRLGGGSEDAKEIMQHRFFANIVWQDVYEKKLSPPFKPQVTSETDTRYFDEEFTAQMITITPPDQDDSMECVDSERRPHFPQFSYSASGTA

Beta-TC6 [11] = test: Increase in insulin release in mouse BetaTC6 cells at 5 uM incubated for 2 hrs by ELISA; type: functional
[12] = biological target: T1, N-terminal kinase-like protein (Mus musculus); test: Inhibition of GRK5 in mouse C2C12 cells assessed as increase in 2-NBDG uptake at 5 uM after 1 hr relative to DMSO; type: cell-based

SMILES | Activity [1] | Activity (Beta-TC6 [2]) [%] | Activity (C2C12 [4]) | Activity (C2C12 [5]) | inhibition [6] | Activity [7] | other results
CC(=O)Nc1cccc(-c2ccc3ncc(-c4cccc(NC(C)=O)c4)n3n2)c1 | Non-toxic | 20 | Toxic | Non-toxic | Dose-dependent effect |  | Activity [3]: Non-toxic
COc1ccc(-c2ccc3ncc(-c4ccncc4)n3n2)cc1OC | Non-toxic | 20 | Toxic | Non-toxic | Dose-dependent effect | Toxic | 
COc1ccc(Cl)cc1C(=O)NCCc1ccc(S(=O)(=O)NC(=O)NC2CCCCC2)cc1 |  |  |  |  |  |  | Activity (Beta-TC6 [8]): inactive
CCN(CC)CCNC(=O)c1c(C)[nH]c(/C=C2\C(=O)Nc3ccc(F)cc32)c1C [SUNITINIB] |  |  |  |  |  | Toxic | 
CCCCNC(=O)NS(=O)(=O)c1ccc(C)cc1 |  |  |  |  |  |  | Activity (Beta-TC6 [8]): inactive
COc1cc(-c2ccc3ncc(-c4cccnc4)n3n2)cc(OC)c1OC | Non-toxic | 20 | Toxic | Non-toxic | Dose-dependent effect |  | Activity [3]: Non-toxic; inhibition [9]: 100%
CN(C)CCNC(=O)c1cccc(-c2cnc3ccc(-c4cccc(NS(C)(=O)=O)c4)nn23)c1 | Non-toxic | 20 | Toxic |  | Dose-dependent effect | Toxic | 
CCCCCCCCCCCCCCCCCCOC[C@H](COP(=O)(O)O[C@H]1[C@H](O)[C@@H](O)[C@H](O)C[C@H]1OC)OC |  |  |  |  |  |  | Activity [10]: 0.75%
COc1ncc(-c2cc(NC(C)=O)c3ncc(-c4cccc(C(=O)N(C)C)c4)n3c2)c(OC)n1 |  |  |  |  |  |  | Activity (Beta-TC6 [11]): -16.75%; fold change (FC) [12]: 1.73
